# Reference: patent US20220220125A1, “FUSED ISOINDOLIN-1-ONE DERIVATIVES USEFUL AS GRK2 INHIBITORS” (Janssen Pharmaceutica NV, priority 2019, published 2022)
# pIC50: −log10 of the molar value.
# Target: T1, GRK2 (Homo sapiens, UniProt P25098)
# T1 sequence (P25098 1-689): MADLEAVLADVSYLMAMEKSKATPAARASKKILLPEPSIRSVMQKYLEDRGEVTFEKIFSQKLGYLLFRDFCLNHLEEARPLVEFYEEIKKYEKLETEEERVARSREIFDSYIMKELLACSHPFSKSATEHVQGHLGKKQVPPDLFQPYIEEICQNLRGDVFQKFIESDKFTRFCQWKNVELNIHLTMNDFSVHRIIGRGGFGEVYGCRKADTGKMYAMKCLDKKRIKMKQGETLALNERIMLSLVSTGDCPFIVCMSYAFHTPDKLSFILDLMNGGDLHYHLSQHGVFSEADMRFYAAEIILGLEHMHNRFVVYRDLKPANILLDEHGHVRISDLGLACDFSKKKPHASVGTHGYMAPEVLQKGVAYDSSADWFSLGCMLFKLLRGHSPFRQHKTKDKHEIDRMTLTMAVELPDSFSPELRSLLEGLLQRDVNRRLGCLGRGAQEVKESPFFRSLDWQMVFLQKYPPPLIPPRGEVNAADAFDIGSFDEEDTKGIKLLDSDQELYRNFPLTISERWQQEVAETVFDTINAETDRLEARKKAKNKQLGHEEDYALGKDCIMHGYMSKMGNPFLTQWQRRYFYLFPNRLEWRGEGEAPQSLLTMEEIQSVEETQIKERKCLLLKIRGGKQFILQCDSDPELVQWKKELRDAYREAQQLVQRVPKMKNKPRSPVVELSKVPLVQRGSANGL
# Assay: hGRK2 LANCE Ultra in vitro kinase assay
# Type: biochemical
# Conditions: 10 nM GRK2; ATP 30 or 600 μM (not stated which); read-out: GRK2 Lancer IC50
# Description: hGRK2 LANCER In Vitro Assay
# This assay is sensitive and requires as low as 10 nM enzyme, in a total volume of 10 μL. In addition, the ATP concentration can be varied over a broad range, without interfering with the assay or changing the assay condition. […] Testing inhibitors routinely at both high and low ATP concentrations also enables identification of potential non-ATP competitive inhibitors.
# This assay measures IC50 values of test compounds (inhibitors) by monitoring GRK2 enzymatic activity at varying inhibitor concentrations.
# Test compounds were dissolved in DMSO at 1 mM and were 3-fold serial diluted. The compound DMSO solutions were then added (100 nL) into a plate well using an acoustic dispenser. To each well was then added 20 nM GRK2 (5 μL) in assay buffer (20 mM HEPES, pH 7.5, 10 mM MgCl2, 0.001% Tween-20). The plate was sealed and centrifuged at 1000 rpm for 1 min. The plate and wells containing a mixture of GRK2 and test compound were incubated at ambient temperature for 30 min (prior to initializing the enzymatic reaction).
# Enzyme reactions were initiated by the addition of 4.9 μL Substrates/Eu-Ab mix to each well. […] Final concentrations of reagents in the assays were as follows: 20 mM HEPES, pH 7.5; 10 mM MgCl2; 0.001% Tween-20 (w/v); 30 or 600 μM ATP; 200 nM ULight-peptide; 4 nM Eu-Ab; 10 nM GRK2; and 1% DMSO.
# The plates were sealed and centrifuged at 1000 rpm for 1 min. For reactions at low ATP concentration (30 μM), reaction mixtures were incubated at ambient temperature for 120 min. For reactions at high ATP concentration (600 μM), reaction mixtures were incubated at ambient temperature for 60 min.
# The enzyme reactions were quenched by addition of 10 μL of 12 mM EDTA in 1× LANCE detection solution to each well. The plates were then incubated at ambient temperature for 30 min. Time-resolved fluorescence signal of reactions were read on an EnVision or PHERAstar plate reader with the following parameters: Excitation wavelength=337 nm, emission wavelength (donor)=620 nm; emission wavelength (acceptor)=665 nm.
# The raw HTRF data were converted to % active as follows:
# % active=(sample−NC)/(PC−NC)*100
# where NC is the mean of negative control (reactions without GRK2), and PC is the mean of positive control (reactions with GRK2 but without inhibitor). IC50 values were determined from a 4-parameter fit, using the following equation:
# Y=Bottom+(Top−Bottom)/(1+10^((Log IC50-X)*Hill slope)),
# where X=log10 of the compound concentration.
row,pIC50,SMILES
1,5.85,COc1cccc([C@H]2COCCCCC3c4ccc(-c5cn[nH]c5)cc4C(=O)N32)c1 (mixture of isomers) [Compound 9]
2,7.92,"O=C1c2cc(-c3cn[nH]c3)ccc2C2CCCCC(c3cccc(O)c3)N12 (single isomer, unassigned) [Compound 6, (7R*)-7-(3-hydroxyphenyl)-3-(1H-pyrazol-4-yl)-7,8,9,10,11,11a-hexahydro-5H-azepino[2,1-a]isoindol-5-one]"
3,8.22,"COc1cccc(N2CCCCC3c4ccc(-c5cn[nH]c5)cc4C(=O)N32)c1 (racemic) [Compound 15, (Rac)-1-(3-methoxyphenyl)-8-(1H-pyrazol-4-yl)-1,2,3,4,5,5a-hexahydro-10H-[1,2]diazepino[7,1-a]isoindol-10-one]"
4,8.05,COc1cc(F)cc(C2CCCCC3c4ccc(-c5cn[nH]c5)cc4C(=O)N23)c1 (stereo not drawn) [Compound 4]
5,8.10,"O=C1c2cc(-c3cn[nH]c3)ccc2C2CCCCC(c3cccc(O)c3)N12 (single isomer, unassigned) [Compound 2, (7S*)-7-(3-hydroxyphenyl)-3-(1H-pyrazol-4-yl)-7,8,9,10,11,11a-hexahydro-5H-azepino[2,1-a]isoindol-5-one]"
6,7.62,COc1cc(F)cc(C2CCCCC3c4ccc(-c5cn[nH]c5)cc4C(=O)N23)c1 (stereo not drawn) [Compound 7]
7,8.05,"COc1cccc(C2CCCCC3c4ccc(-c5cn[nH]c5)cc4C(=O)N23)c1 (single isomer, unassigned) [Compound 3, (7S*)-7-(3-methoxyphenyl)-3-(1H-pyrazol-4-yl)-7,8,9,10,11,11a-hexahydro-5H-azepino[2,1-a]isoindol-5-one]"
8,5.99,COc1cccc([C@H]2COC/C=C\CC3c4ccc(-c5cn[nH]c5)nc4C(=O)N32)c1 (mixture of isomers) [Compound 14]
9,6.78,COc1cccc([C@H]2COC/C=C\CC3c4ccc(-c5cn[nH]c5)cc4C(=O)N32)c1 (mixture of isomers) [Compound 8]
10,8.10,"COc1cccc(N2CC=CCC3c4ccc(-c5cn[nH]c5)cc4C(=O)N32)c1 (racemic) [Compound 16, 1-(3-methoxyphenyl)-8-(1H-pyrazol-4-yl)-1,2,5,5a-tetrahydro-10H-[1,2]diazepino[7,1-a]isoindol-10-one]"
11,7.96,"COc1cccc(C2CCCCC3c4ccc(-c5cn[nH]c5)cc4C(=O)N23)c1 (single isomer, unassigned) [Compound 5]"
12,> 8.30,"COc1cccc(C2CCCCC3c4ccc(-c5cn[nH]c5)cc4C(=O)N23)c1 (single isomer, unassigned) [Compound 1, (7R*)-7-(3-methoxyphenyl)-3-(1H-pyrazol-4-yl)-7,8,9,10,11,11a-hexahydro-5H-azepino[2,1-a]isoindol-5-one]"
